Test results as given in ChEMBL document CHEMBL1201862, “PubChem BioAssay data set” (2004).
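The compound was tested at five concentrations on cells cultured in 96-well plates, with a 48-hour exposure period. The concentration for 50% growth inhibition is given as GI50.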 The source made the active and inactive calls. No stated cut-off is given here; in the data, active = GI50 up to about 1.1 µM and inactive = higher.

Key:
Test in all cases: inhibition of tumour cell growth, NCI panel, 48 h
[1] = system: 786-0
[2] = system: A549
[3] = system: COLO 205
[4] = system: HCT-116
[5] = system: HOP-62
[6] = system: K562
[7] = system: M14
[8] = system: MDA-MB-231
[9] = system: MDA-N
[10] = system: NCI-H23
[11] = system: OVCAR-3
[12] = system: OVCAR-8
[13] = system: PC-3
[14] = system: SF-539
[15] = system: SK-OV-3
[16] = system: IGROV-1
[17] = system: MCF7
[18] = system: RPMI-8226
[19] = system: SNB-75
[20] = system: SW-620

Compound | GI50 [1] | GI50 [2] | GI50 [3] | GI50 [4] | GI50 [5] | GI50 [6] | GI50 [7] | GI50 [8] | GI50 [9] | GI50 [10] | GI50 [11] | GI50 [12] | GI50 [13] | GI50 [14] | GI50 [15] | GI50 [16] | GI50 [17] | GI50 [18] | GI50 [19] | GI50 [20]
Cc1ccc2nc(-c3ccc(N)c(Br)c3)sc2c1 | 29.1 µM (inactive) | 29 µM (inactive) | 55.8 µM (inactive) | 31.4 µM (inactive) | 13.5 µM (inactive) | 17.4 µM (inactive) | 26.7 µM (inactive) | 25.3 µM (inactive) | > 100 µM (inactive) | 22.2 µM (inactive) | 10.1 µM (inactive) | 48.2 µM (inactive) | 22.2 µM (inactive) | 33.1 µM (inactive) | 22.5 µM (inactive) | – | – | – | – | –
O=C(Cn1c(C(=O)/C=C/c2cccs2)nc2ccccc21)c1ccc(Cl)cc1 | 16.3 µM (inactive) | 23.3 µM (inactive) | 17.5 µM (inactive) | 16.6 µM (inactive) | 25.9 µM (inactive) | 7.8 µM (inactive) | 18.6 µM (inactive) | 16.8 µM (inactive) | 21.1 µM (inactive) | 14.7 µM (inactive) | 15.5 µM (inactive) | – | – | 32.2 µM (inactive) | 32.9 µM (inactive) | 16.7 µM (inactive) | 16.3 µM (inactive) | 8.05 µM (inactive) | 24.2 µM (inactive) | 25.6 µM (inactive)
CC(C)(C)OC(=O)NC(Cc1ccc(OCc2ccccc2)cn1)C(=O)O (centres undefined) | > 100 µM (inactive) | > 100 µM (inactive) | > 100 µM (inactive) | > 100 µM (inactive) | > 100 µM (inactive) | > 100 µM (inactive) | – | > 100 µM (inactive) | > 100 µM (inactive) | > 100 µM (inactive) | > 100 µM (inactive) | > 100 µM (inactive) | > 100 µM (inactive) | > 100 µM (inactive) | – | > 100 µM (inactive) | > 100 µM (inactive) | > 100 µM (inactive) | – | > 100 µM (inactive)
COC(=O)c1cc2c3c(ccc2[nH]1)N(C(=O)c1cc2cc(OC)c(OC)c(OC)c2[nH]1)CC3CCl (centres undefined) | 3.79 µM (inactive) | 5.37 µM (inactive) | 2.66 µM (inactive) | 4.46 µM (inactive) | > 21.8 µM (inactive) | – | > 27.5 µM (inactive) | > 100 µM (inactive) | – | 5.56 µM (inactive) | > 24.4 µM (inactive) | 12.6 µM (inactive) | 4.31 µM (inactive) | > 34.8 µM (inactive) | > 100 µM (inactive) | 7.87 µM (inactive) | 3.94 µM (inactive) | 1.69 µM (inactive) | > 100 µM (inactive) | 5.48 µM (inactive)
CNC(=O)c1ccccc1-[s+]1c2ccccc2c(=O)n1C (centres undefined) | > 100 µM (inactive) | > 100 µM (inactive) | > 100 µM (inactive) | > 100 µM (inactive) | > 100 µM (inactive) | > 100 µM (inactive) | > 100 µM (inactive) | > 100 µM (inactive) | > 100 µM (inactive) | > 100 µM (inactive) | > 100 µM (inactive) | > 100 µM (inactive) | > 100 µM (inactive) | > 100 µM (inactive) | – | > 100 µM (inactive) | > 100 µM (inactive) | > 100 µM (inactive) | – | > 100 µM (inactive)
N=c1oc2ccc(Cl)cc2cc1C(N)=O | 24.8 µM (inactive) | 42.6 µM (inactive) | 36.6 µM (inactive) | 21.2 µM (inactive) | – | > 100 µM (inactive) | 27.5 µM (inactive) | 24.4 µM (inactive) | 25.1 µM (inactive) | 22.4 µM (inactive) | 18.2 µM (inactive) | 33.2 µM (inactive) | 17.2 µM (inactive) | 31.3 µM (inactive) | > 100 µM (inactive) | 21.4 µM (inactive) | – | 66.4 µM (inactive) | 26.1 µM (inactive) | 45.9 µM (inactive)
O=c1[nH]nc(Cc2ccccc2)n1/N=C/c1ccccc1Cl | 41.1 µM (inactive) | > 100 µM (inactive) | > 100 µM (inactive) | > 100 µM (inactive) | – | > 100 µM (inactive) | – | > 100 µM (inactive) | > 100 µM (inactive) | > 100 µM (inactive) | > 100 µM (inactive) | > 100 µM (inactive) | > 100 µM (inactive) | > 100 µM (inactive) | > 100 µM (inactive) | > 100 µM (inactive) | > 100 µM (inactive) | > 100 µM (inactive) | – | > 100 µM (inactive)
N#[N+]c1cc2c(cc1Br)-c1ccccc1C2 | > 100 µM (inactive) | 95.9 µM (inactive) | > 100 µM (inactive) | > 100 µM (inactive) | > 100 µM (inactive) | 8.39 µM (inactive) | > 100 µM (inactive) | > 100 µM (inactive) | – | > 100 µM (inactive) | 46.9 µM (inactive) | 15.6 µM (inactive) | – | > 100 µM (inactive) | > 100 µM (inactive) | 38.8 µM (inactive) | 45.5 µM (inactive) | – | > 100 µM (inactive) | > 100 µM (inactive)
CN(C)CCCn1c(Cn2nc3ccccc3n2)nc2cc(C(F)(F)F)ccc21 | 19.3 µM (inactive) | 41 µM (inactive) | 15.3 µM (inactive) | 36 µM (inactive) | 64.4 µM (inactive) | 16.5 µM (inactive) | 15.3 µM (inactive) | 28.9 µM (inactive) | 18.8 µM (inactive) | 34 µM (inactive) | 36.7 µM (inactive) | 30.4 µM (inactive) | 31.6 µM (inactive) | – | 16.9 µM (inactive) | 29 µM (inactive) | 22 µM (inactive) | – | – | 34.2 µM (inactive)
COP(C)(=O)C(Cc1c[nH]c2ccccc12)NC(=O)OCc1ccccc1 (centres undefined) | > 100 µM (inactive) | > 100 µM (inactive) | > 100 µM (inactive) | > 100 µM (inactive) | > 100 µM (inactive) | > 100 µM (inactive) | > 100 µM (inactive) | > 100 µM (inactive) | > 100 µM (inactive) | > 100 µM (inactive) | > 100 µM (inactive) | > 100 µM (inactive) | > 100 µM (inactive) | > 100 µM (inactive) | > 100 µM (inactive) | > 100 µM (inactive) | > 100 µM (inactive) | > 100 µM (inactive) | – | > 100 µM (inactive)
Cc1ccc2c(=O)c(-c3nnc(N)s3)c[nH]c2n1 | 55.2 µM (inactive) | > 100 µM (inactive) | > 100 µM (inactive) | > 100 µM (inactive) | 18.6 µM (inactive) | > 100 µM (inactive) | > 100 µM (inactive) | > 100 µM (inactive) | > 100 µM (inactive) | > 100 µM (inactive) | > 100 µM (inactive) | 42.2 µM (inactive) | > 100 µM (inactive) | – | – | > 100 µM (inactive) | > 100 µM (inactive) | > 100 µM (inactive) | – | > 100 µM (inactive)
Cc1cc(NC(=O)NC(=O)c2ccccc2NC(=O)CN)ccc1Oc1ncc(Br)cn1 | 0.502 µM (active) | 0.879 µM (active) | 0.249 µM (active) | 0.33 µM (active) | 0.215 µM (active) | 0.419 µM (active) | 0.592 µM (active) | 0.297 µM (active) | 0.105 µM (active) | 0.74 µM (active) | 0.217 µM (active) | 1.17 µM (inactive) | 0.217 µM (active) | – | – | 0.847 µM (active) | 0.259 µM (active) | 1.57 µM (inactive) | 0.139 µM (active) | 0.618 µM (active)
CCCCCCCCCCOc1ccc(/N=N/c2nnc(-c3ccc(OCCCCC)cc3)s2)cc1 | > 100 µM (inactive) | > 100 µM (inactive) | > 100 µM (inactive) | > 100 µM (inactive) | > 100 µM (inactive) | > 100 µM (inactive) | > 100 µM (inactive) | > 100 µM (inactive) | > 100 µM (inactive) | > 100 µM (inactive) | 97.3 µM (inactive) | > 100 µM (inactive) | > 100 µM (inactive) | > 100 µM (inactive) | > 100 µM (inactive) | > 100 µM (inactive) | 39.2 µM (inactive) | > 100 µM (inactive) | – | > 100 µM (inactive)
Cc1ccc([Se](=C(C(=O)c2ccccc2)C(=O)c2ccccc2)c2ccc(C)cc2)cc1 | 38.3 µM (inactive) | 25.3 µM (inactive) | 17.3 µM (inactive) | 34.4 µM (inactive) | 48 µM (inactive) | 28.8 µM (inactive) | 33.6 µM (inactive) | 15.8 µM (inactive) | – | 18.8 µM (inactive) | 20.6 µM (inactive) | 26.4 µM (inactive) | 23.3 µM (inactive) | 25.6 µM (inactive) | 43.7 µM (inactive) | 19.6 µM (inactive) | 26.7 µM (inactive) | 4.14 µM (inactive) | 37.8 µM (inactive) | 29.5 µM (inactive)
COc1c(C)c(OC)c(C(=O)CC(C)C)c(OC)c1C | > 100 µM (inactive) | > 100 µM (inactive) | > 100 µM (inactive) | 65.6 µM (inactive) | > 100 µM (inactive) | – | > 100 µM (inactive) | > 100 µM (inactive) | > 100 µM (inactive) | 83 µM (inactive) | > 100 µM (inactive) | > 100 µM (inactive) | 52.4 µM (inactive) | > 100 µM (inactive) | > 100 µM (inactive) | > 100 µM (inactive) | > 100 µM (inactive) | 20.3 µM (inactive) | – | > 100 µM (inactive)
Nc1nc(Cl)c2ncn(Cc3ccccc3CCl)c2n1 | 16.9 µM (inactive) | 22 µM (inactive) | 5.05 µM (inactive) | 3.95 µM (inactive) | 21.6 µM (inactive) | 4.43 µM (inactive) | 5.73 µM (inactive) | 2.96 µM (inactive) | – | 3.03 µM (inactive) | 3.37 µM (inactive) | 3.86 µM (inactive) | 15 µM (inactive) | 18 µM (inactive) | 15.3 µM (inactive) | 6.34 µM (inactive) | 5.97 µM (inactive) | 11.3 µM (inactive) | 8.13 µM (inactive) | 3.3 µM (inactive)
